The target of the assay is GTPase KRas (Homo sapiens, UniProt P01116, G12C). In words: Inhibition of human KRAS G12C mutant incubated for 2 hrs by scintillation counter based covalent competition assay.

One may read the IC50 as the point on the concentration scale where inhibition reaches its midpoint. High values mean weaker potency in that assay, low ones greater potency in that assay. Turning to `C=CC(=O)N1CC2(CC(n3nc(-c4ccc5c(c4)CCN5C(=O)CN4CC[C@H](F)C4)c(-c4c(Cl)c(C)cc5[nH]ncc45)c3C)C2)C1` (stereo in doubt; 76a), the IC50 is 0.015 µM. With `C=CC(=O)N1CC2(CC(n3nc(-c4ccc5c(c4)CCN5C(=O)CN4CC[C@H](F)C4)c(-c4c(Cl)c(C)cc5[nH]ncc45)c3C)C2)C1` (stereo in doubt; 76b), the IC50 came out at 13.3 µM.
